Our source for the inhibition, melting point and IC50 values is patent publication US10100054B1, “Pyrido[2,3-d]pyrimidines as anticancer agents” (KING SAUD UNIVERSITY, priority 2018, dated 2018).

Structures are written as SMILES.

The target of one data set is PI3K (p110a/p85a) (Homo sapiens, UniProt P42336). In words: Kinase screening (radiometric or ADP-Glo assay). Format: biochemical. To be noted: negative values: inhibition, positive values: activation of target activity. On the procedure: (§1) The in vitro enzyme inhibition determination for the pyrido[2,3-d]pyrimidine derivatives was performed against a range of five protein kinases [PDGFR beta, EGFR, CDK4/Cyclin D1, PI3K (p100b/p85a), and PI3K (p100a/p85a)], including two concentrations (50 & 100 μM) in single measurements using the radiometric or ADP-Glo assay method. The intra-assay variability was determined to be less than 10%. Inhibition of target activity by the compound gives negative (−) values, while activation of target activity gives positive (+) value.
(§2) The pyrido[2,3-d]pyrimidine derivative 5 was supplied by Kinexus as a powder, and a stock solution was made in DMSO. The stock solution was then diluted to form an assay stock solution, and this was used to profile against the protein kinases and lipid protein kinases [PDGFR beta, EGFR, CDK4/Cyclin D1, PI3K (p100b/p85a), and PI3K (p100a/p85a)]. The assay condition for the protein kinase targets was optimized to yield acceptable enzymatic activity. In addition, the assays were optimized to give high signal-to-noise ratio.
(§3) For Protein Kinase (PK) Assays, a radioisotope assay format was used for profiling evaluation of PK targets and all assays were carried out in a designated radioactive working area. PK assays (in singlicate) were performed at ambient temperature for 30 min in a final volume of 25 μl according to the following assay reaction recipe: Component 1:5 μl of diluted active PK target (˜10-50 nM final concentration); Component 2:5 μl of stock solution of substrate (1-5 μg of peptide substrate); Component 3:5 μl of kinase assay buffer; Component 4:5 μl of compound (50 μM) or 10% DMSO; and Component 5:5 μl of ^33P-ATP (250 μM stock solution, 0.8 μCi).
(§4) The assay was initiated by the addition of ^33P-ATP, and the reaction mixture incubated at ambient temperature for 30 minutes. After the incubation period, the assay was terminated by spotting 10 μl of the reaction mixture onto Multiscreen phosphocellulose P81 plate. The Multiscreen phosphocellulose P81 plate was washed 3 times for approximately 15 min each in a 1% phosphoric acid solution. The radioactivity on the P81 plate was counted in the presence of scintillation fluid in a Trilux scintillation counter. Blank control was set up that included all the assay components except the addition of the appropriate substrate (replaced with equal volume of assay dilution buffer). The corrected activity for PK target was determined by removing the blank control value.
(ADP-Glo first removes unused ATP, then detects ADP through luciferase.)

A further data set deals with CDK4/CyclinD1 (Homo sapiens, UniProt P11802). In words: Kinase screening (radiometric or ADP-Glo assay). It counts as biochemical. On the procedure:
as §1, §2, §3, §4

A further data set has as its target EGFR (Homo sapiens, UniProt P00533). The data set is described as follows: Kinase screening (radiometric or ADP-Glo assay). It counts as biochemical. On the procedure:
as §1, §2, §3, §4

In a further data set the target is PDGFRβ (Homo sapiens, UniProt P09619). In words: Kinase screening (radiometric or ADP-Glo assay). Format: biochemical. On the procedure: as §1, §2, §3, §4
A further data set concerns HepG2. The data set is described as follows: In vitro anticancer screening, MTT cell viability. It counts as cell-based. The note with it: Homo sapiens; for inhibition at 100 µM: HepG2, 100 μM dose, read-out: Growth inhibition (%); for IC50: HepG2, MTT, 48 h. On the procedure:
(§5) Anticancer activity screening was adopted against five cancer cell lines, viz., HepG2, PC-3, HCT116, MCF-7, A549, and doxorubicin was used as a reference standard at 100 micromole.
(§6) Cell viability was assessed by the mitochondrial dependent reduction of yellow MTT (3-(4,5-dimethylthiazol-2-yl)-2,5-diphenyl tetrazolium bromide) to purple formazan. All the following procedures were done in a sterile area using a laminar air flow cabinet of class II biosafety (Baker, SG403INT, Sanford, Me., USA). Cells were suspended in DMEM medium for PC-3, and RPMI1640 in case of A-549, MCF-7, HCT-116 and HePG-2. The media are supplemented with 1% antibiotic antimycotic mixture (10,000 U ml^−1 Potassium Penicillin, 10,000 μg ml^−1 Streptomycin Sulfate and 25 μg ml^−1 Amphotericin B), 1% L-glutamine and 10% fetal bovine serum (complete growth medium) and kept at […] under 5% CO2. Cells were batch cultured for 10 days, then seeded at a concentration of 10×10^3 cells/well in fresh complete growth medium in 96-well Microtiter plastic plates at 37° C. for 24 h under 5% CO2 and a humid atmosphere using a water jacketed carbon dioxide incubator (Sheldon, TC2323, Cornelius, Oreg., USA). Media was aspirated, fresh medium (without serum) was added, and cells were incubated either alone (negative control) or with serial dilutions of each sample. After 48 h of incubation, the medium was aspirated, 40 μl MTT salt (2.5 μg ml^−1) was added to each well and incubated for a further four hours at 37° C. under 5% CO2. To stop the reaction and dissolving the formed crystals, 200 μl of 10% sodium dodecyl sulfate (SDS) in deionized water was added to each well and incubated overnight at 37° C. The absorbance was then measured using a microplate multi-well reader ELISA reader (Bio-Rad Laboratories Inc., model 3350, Hercules, Calif., USA) at 595 nm and a reference wavelength of 620 nm. A statistical significance was tested between samples and negative control (cells with vehicle) using independent t-test by SPSS 11 program. DMSO is the vehicle used for dissolution of plant extracts, and its final concentration in the cells was less than 0.2%. The percentage of change in viability was calculated according to the formula: (average absorbance of extract/average absorbance of negative control)−1)×100. A probit analysis was carried for IC50 determination using SPSS 11 program.

A further data set has as its system A549. The data set is described as follows: In vitro anticancer screening, MTT cell viability. Format: cell-based. To be noted: Homo sapiens; for inhibition at 100 µM: A549, 100 μM dose, read-out: Growth inhibition (%). On the procedure:
as §5, §6

The subject of a further data set is PC3. In words: In vitro anticancer screening, MTT cell viability. It counts as cell-based. To be noted: Homo sapiens, PC-3; for inhibition at 100 µM: PC3, 100 μM dose, read-out: Growth inhibition (%); for IC50: PC3, MTT, 48 h. On the procedure: as §5, §6
For another data set, the system named is HCT116. The data set is described as follows: In vitro anticancer screening, MTT cell viability. Format: cell-based. The note with it: Homo sapiens, HCT-116; for inhibition at 100 µM: HCT116, 100 μM dose, read-out: Growth inhibition (%); for IC50: HCT116, MTT, 48 h. On the procedure:
as §5, §6

Another data set deals with MCF7. The data set is described as follows: In vitro anticancer screening, MTT cell viability. It counts as cell-based. The note with it: Homo sapiens; for inhibition at 100 µM: MCF7, 100 μM dose, read-out: Growth inhibition (%). On the procedure: as §5, §6

Chain of CDK4/CyclinD1 (P11802 whole entry, species assumed): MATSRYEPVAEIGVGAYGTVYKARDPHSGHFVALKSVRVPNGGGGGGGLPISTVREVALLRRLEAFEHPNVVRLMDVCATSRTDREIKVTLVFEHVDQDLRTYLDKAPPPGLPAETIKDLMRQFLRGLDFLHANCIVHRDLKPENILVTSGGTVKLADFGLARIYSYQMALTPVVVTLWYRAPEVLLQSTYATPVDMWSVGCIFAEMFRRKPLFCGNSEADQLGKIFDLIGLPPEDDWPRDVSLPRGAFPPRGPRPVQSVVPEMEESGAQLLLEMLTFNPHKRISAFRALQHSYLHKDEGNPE
Chain of CDK4/CyclinD1 (P24385 whole entry partner, species assumed): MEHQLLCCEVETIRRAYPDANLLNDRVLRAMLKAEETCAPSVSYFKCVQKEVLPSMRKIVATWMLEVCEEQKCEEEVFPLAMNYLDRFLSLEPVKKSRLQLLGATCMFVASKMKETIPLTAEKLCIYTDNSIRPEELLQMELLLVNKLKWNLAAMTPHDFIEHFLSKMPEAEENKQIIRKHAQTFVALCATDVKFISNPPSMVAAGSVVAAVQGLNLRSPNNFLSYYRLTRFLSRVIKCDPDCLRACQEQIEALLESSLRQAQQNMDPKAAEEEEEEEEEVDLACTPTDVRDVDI
Chain of PDGFRβ (P09619 33-1106, species assumed): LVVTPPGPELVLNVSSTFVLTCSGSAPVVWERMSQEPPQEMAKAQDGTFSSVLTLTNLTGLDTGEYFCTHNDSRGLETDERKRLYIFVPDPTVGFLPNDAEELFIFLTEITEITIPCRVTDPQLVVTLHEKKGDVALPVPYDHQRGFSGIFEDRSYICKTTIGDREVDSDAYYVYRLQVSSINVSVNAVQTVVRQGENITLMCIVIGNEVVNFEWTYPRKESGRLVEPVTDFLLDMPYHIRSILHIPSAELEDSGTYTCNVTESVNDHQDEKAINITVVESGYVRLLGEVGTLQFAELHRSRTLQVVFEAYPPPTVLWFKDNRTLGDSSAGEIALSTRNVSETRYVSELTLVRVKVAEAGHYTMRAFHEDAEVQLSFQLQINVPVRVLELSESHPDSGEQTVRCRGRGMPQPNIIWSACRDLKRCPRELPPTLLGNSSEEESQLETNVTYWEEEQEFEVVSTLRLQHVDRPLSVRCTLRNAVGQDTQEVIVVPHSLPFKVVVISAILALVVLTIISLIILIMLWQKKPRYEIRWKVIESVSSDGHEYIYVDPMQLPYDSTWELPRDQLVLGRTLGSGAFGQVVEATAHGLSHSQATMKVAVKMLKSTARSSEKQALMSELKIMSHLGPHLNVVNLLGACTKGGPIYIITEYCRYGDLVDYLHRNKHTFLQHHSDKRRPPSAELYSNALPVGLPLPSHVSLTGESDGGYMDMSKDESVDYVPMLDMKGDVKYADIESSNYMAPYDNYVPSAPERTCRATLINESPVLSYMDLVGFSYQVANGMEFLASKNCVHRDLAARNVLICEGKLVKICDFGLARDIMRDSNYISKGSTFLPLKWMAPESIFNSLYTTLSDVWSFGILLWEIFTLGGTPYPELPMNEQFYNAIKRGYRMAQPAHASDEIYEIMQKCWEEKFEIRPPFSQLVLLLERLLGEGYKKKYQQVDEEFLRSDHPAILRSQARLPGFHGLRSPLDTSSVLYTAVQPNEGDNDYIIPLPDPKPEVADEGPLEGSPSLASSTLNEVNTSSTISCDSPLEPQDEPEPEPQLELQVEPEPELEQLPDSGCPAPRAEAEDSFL
Chain of PI3K (p110a/p85a) (P42336 whole entry): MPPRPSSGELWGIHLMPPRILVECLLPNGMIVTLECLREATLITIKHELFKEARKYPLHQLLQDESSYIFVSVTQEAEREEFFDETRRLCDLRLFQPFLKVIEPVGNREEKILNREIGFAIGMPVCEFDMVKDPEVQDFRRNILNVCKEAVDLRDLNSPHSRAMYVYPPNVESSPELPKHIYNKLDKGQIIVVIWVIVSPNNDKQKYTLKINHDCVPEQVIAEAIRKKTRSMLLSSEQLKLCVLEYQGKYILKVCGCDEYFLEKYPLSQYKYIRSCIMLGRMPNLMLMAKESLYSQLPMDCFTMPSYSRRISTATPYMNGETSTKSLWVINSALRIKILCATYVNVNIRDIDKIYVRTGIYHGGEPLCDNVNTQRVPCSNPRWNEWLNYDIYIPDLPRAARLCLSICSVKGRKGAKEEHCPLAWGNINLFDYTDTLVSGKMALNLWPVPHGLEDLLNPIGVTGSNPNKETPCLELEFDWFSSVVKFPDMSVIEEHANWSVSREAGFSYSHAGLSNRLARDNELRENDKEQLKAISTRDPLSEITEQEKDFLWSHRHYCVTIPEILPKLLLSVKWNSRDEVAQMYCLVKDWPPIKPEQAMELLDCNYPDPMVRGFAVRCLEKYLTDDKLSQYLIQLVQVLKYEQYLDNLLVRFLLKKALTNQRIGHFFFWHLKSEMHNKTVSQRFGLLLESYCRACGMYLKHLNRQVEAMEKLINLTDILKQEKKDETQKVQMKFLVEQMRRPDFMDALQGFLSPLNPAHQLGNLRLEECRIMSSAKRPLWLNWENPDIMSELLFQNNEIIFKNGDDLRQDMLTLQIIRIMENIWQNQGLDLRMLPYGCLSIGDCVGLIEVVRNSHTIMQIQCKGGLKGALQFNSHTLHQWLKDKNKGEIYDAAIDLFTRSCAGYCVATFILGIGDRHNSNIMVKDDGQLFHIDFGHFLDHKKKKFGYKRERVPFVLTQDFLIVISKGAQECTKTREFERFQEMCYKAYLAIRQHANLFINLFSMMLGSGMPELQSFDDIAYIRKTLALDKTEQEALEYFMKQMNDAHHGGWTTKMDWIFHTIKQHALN
Chain of PI3K (p110a/p85a) (P27986 whole entry partner): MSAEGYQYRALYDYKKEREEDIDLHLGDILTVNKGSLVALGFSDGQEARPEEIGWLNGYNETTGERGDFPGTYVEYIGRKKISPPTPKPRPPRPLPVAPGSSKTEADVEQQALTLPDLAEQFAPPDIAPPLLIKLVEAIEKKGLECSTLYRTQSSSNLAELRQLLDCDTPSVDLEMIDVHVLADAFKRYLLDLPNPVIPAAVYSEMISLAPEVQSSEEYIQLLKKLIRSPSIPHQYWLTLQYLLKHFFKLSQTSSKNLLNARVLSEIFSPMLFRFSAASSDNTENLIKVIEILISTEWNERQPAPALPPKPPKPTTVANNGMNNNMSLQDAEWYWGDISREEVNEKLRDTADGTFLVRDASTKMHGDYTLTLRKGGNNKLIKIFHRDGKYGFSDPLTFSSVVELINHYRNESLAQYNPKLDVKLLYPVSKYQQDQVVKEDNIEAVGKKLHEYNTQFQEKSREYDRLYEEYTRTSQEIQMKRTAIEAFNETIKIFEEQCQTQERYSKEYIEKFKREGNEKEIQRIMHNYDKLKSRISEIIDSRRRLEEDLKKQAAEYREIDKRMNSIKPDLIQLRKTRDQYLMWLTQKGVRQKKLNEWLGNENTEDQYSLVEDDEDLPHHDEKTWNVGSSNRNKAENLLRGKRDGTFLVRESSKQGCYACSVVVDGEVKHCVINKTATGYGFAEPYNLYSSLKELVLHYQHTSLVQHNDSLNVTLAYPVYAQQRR
Chain of EGFR (P00533 25-1210, species assumed): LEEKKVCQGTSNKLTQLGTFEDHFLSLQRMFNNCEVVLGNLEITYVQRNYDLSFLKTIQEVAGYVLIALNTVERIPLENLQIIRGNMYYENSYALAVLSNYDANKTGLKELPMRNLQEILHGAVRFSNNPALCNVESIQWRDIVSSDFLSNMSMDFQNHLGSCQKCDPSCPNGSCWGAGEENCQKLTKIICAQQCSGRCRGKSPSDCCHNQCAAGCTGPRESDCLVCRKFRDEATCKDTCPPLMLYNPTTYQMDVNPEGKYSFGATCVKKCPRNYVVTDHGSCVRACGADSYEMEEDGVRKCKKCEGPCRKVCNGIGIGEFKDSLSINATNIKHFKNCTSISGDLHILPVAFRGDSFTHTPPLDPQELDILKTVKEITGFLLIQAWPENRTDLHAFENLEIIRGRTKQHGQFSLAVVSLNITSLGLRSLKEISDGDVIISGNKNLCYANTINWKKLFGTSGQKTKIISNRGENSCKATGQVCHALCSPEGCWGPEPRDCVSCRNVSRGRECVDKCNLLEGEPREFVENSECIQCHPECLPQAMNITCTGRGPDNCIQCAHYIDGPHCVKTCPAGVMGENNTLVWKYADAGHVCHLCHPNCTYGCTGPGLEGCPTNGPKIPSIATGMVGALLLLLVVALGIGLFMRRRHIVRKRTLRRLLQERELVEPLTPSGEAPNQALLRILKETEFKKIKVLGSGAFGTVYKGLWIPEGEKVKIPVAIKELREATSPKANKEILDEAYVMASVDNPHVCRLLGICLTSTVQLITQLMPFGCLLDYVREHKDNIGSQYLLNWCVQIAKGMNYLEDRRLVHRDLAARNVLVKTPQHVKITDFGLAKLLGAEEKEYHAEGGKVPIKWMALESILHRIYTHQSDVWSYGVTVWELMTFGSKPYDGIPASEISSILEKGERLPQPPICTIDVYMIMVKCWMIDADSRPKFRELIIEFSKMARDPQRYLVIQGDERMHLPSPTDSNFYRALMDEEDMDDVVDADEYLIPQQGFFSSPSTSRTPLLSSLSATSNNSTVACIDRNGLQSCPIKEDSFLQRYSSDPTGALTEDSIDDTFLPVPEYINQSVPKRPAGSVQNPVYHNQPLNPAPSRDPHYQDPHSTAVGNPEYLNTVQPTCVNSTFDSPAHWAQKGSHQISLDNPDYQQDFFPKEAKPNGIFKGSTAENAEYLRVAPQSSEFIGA

As a reminder, the inhibition is the relative decrease from the control value, in per cent. The melting point is the temperature, or range, at which the solid turns liquid. A word on the IC50: it is the midpoint of a concentration-inhibition curve. High values mean lower potency, low ones higher potency. As for `COc1cccc(-c2cc(-c3cccnc3)nc3nc(-n4[nH]c(C)cc4=O)[nH]c(=O)c23)c1` [Target], the melting point is greater than 300 °C. Besides, the inhibition at 50 µM on PI3K (p110a/p85a) (50 μM) was -178%. The inhibition at 100 µM against PI3K (p110a/p85a) (100 μM) was -185%. For the same compound, the inhibition at 50 µM against CDK4/CyclinD1 (50 μM) worked out at 31%. The inhibition at 100 µM on CDK4/CyclinD1 (100 μM) was 73%. For the same compound, the inhibition at 50 µM against EGFR (50 μM) was 79%. The inhibition at 100 µM at EGFR (100 μM) worked out at 85%. For the same compound, at PDGFRβ (50 μM), the inhibition at 50 µM is 83%. Further, the inhibition at 100 µM against PDGFRβ (100 μM) was determined as 90%. In the data set on HepG2, the inhibition at 100 µM amounted to 100% and 0.3 µM corresponded to half-maximal inhibition (IC50). Also, the inhibition at 100 µM with A549 is 99%. In addition, in the data set with A549 (A549, MTT, 48 h), the IC50 came out at 3.21 ± 0.4 µM. In addition, in the data set on PC3, the inhibition at 100 µM was determined as 100% and it took 5.3 ± 0.09 µM to reach half-maximal inhibition (IC50). For the same compound, in the data set on HCT116, the inhibition at 100 µM was 99% and half-maximal inhibition (IC50) was put at 6.9 ± 0.5 µM. Also, the inhibition at 100 µM in the data set with MCF7 is 87%. In the data set on MCF7 (MCF7, MTT, 48 h), this compound came in with an IC50 of 9.1 ± 2.1 µM.

For the compound `COc1cccc2c1C(=O)c1c(O)c3c(c(O)c1C2=O)C[C@@](O)(C(=O)CO)C[C@@H]3O[C@H]1C[C@H](N)[C@H](O)[C@H](C)O1` [doxorubicin, reference compound], the inhibition at 100 µM is 100% with HepG2; 100% in the data set on A549; 100% in the data set on PC3; 100% with HCT116; 91% in the data set on MCF7. Besides, the IC50 with HepG2 amounted to 0.6 µM; in the data set on PC3, 6.8 ± 1.2 µM; in the data set with HCT116, 12.8 ± 1 µM.
